According to PubChem BioAssay (NCI):
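48-hour exposure; five concentrations; linearly interpolated endpoints. GI50 = concentration required for 50% inhibition of growth. At the TGI there is no net growth.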

Tests used:
Test in all cases: DTP human tumour cell line panel, 48 h; in the data active means GI50 below about 0.43 µM; inactive means the rest
MALME-3M melanoma = test system: MALME-3M melanoma
A498 renal = test system: A498 renal
HS 578T breast = test system: HS 578T breast
EKVX NSCLC = test system: EKVX NSCLC
DU-145 prostate = test system: DU-145 prostate
SNB-19 CNS = test system: SNB-19 CNS
NCI-H226 lung = test system: NCI-H226 lung
CAKI-1 renal = test system: CAKI-1 renal
A549 NSCLC = test system: A549 NSCLC
UO-31 renal = test system: UO-31 renal
U251 CNS = test system: U251 CNS
HOP-92 NSCLC = test system: HOP-92 NSCLC
SK-OV-3 ovarian = test system: SK-OV-3 ovarian
COLO 205 colon = test system: COLO 205 colon
KM12 colon = test system: KM12 colon
BT-549 breast = test system: BT-549 breast
UACC-62 melanoma = test system: UACC-62 melanoma
NCI/ADR-RES ovarian = test system: NCI/ADR-RES ovarian
SR leukemia = test system: SR leukemia
HCT-116 colon = test system: HCT-116 colon
MOLT-4 leukemia = test system: MOLT-4 leukemia
SNB-75 CNS = test system: SNB-75 CNS
M14 melanoma = test system: M14 melanoma
SW-620 colon = test system: SW-620 colon
CCRF-CEM leukemia = test system: CCRF-CEM leukemia
TK-10 renal = test system: TK-10 renal
SK-MEL-2 melanoma = test system: SK-MEL-2 melanoma
MDA-MB-231 breast = test system: MDA-MB-231 breast
786-0 renal = test system: 786-0 renal
K-562 leukemia = test system: K-562 leukemia
HCT-15 colon = test system: HCT-15 colon
RPMI-8226 leukemia = test system: RPMI-8226 leukemia
SF-268 CNS = test system: SF-268 CNS
RXF 393 renal = test system: RXF 393 renal
MCF7 breast = test system: MCF7 breast
T-47D breast = test system: T-47D breast
HL-60(TB) leukemia = test system: HL-60(TB) leukemia
SF-539 CNS = test system: SF-539 CNS
HOP-62 NSCLC = test system: HOP-62 NSCLC
LOX IMVI melanoma = test system: LOX IMVI melanoma
SN12C renal = test system: SN12C renal
OVCAR-8 ovarian = test system: OVCAR-8 ovarian
SK-MEL-5 melanoma = test system: SK-MEL-5 melanoma
NCI-H522 lung = test system: NCI-H522 lung
HCC-2998 colon = test system: HCC-2998 colon
OVCAR-5 ovarian = test system: OVCAR-5 ovarian
OVCAR-4 ovarian = test system: OVCAR-4 ovarian
SK-MEL-28 melanoma = test system: SK-MEL-28 melanoma
PC-3 prostate = test system: PC-3 prostate
ACHN renal = test system: ACHN renal
HT29 colon = test system: HT29 colon
UACC-257 melanoma = test system: UACC-257 melanoma
SF-295 CNS = test system: SF-295 CNS
NCI-H460 lung = test system: NCI-H460 lung
OVCAR-3 ovarian = test system: OVCAR-3 ovarian
NCI-H23 lung = test system: NCI-H23 lung

COc1ccc(-c2ccc(=O)oc2C#Cc2cc(OC)c(OC)c(OC)c2)cc1O
2390 nM: TGI (RXF 393 renal)
33900 nM: TGI (OVCAR-5 ovarian)
5650 nM: TGI (SK-OV-3 ovarian)
21900 nM: TGI (A549 NSCLC)
1540 nM: TGI (DU-145 prostate)
4590 nM: TGI (NCI-H460 lung)
> 40400 nM: TGI (COLO 205 colon)
> 100000 nM: TGI (HS 578T breast) | TGI (EKVX NSCLC) | TGI (SNB-19 CNS) | TGI (NCI-H226 lung) | TGI (CAKI-1 renal) | TGI (KM12 colon) | TGI (UACC-62 melanoma) | TGI (SR leukemia) | TGI (MOLT-4 leukemia) | TGI (M14 melanoma) | TGI (SW-620 colon) | TGI (CCRF-CEM leukemia) | TGI (TK-10 renal) | TGI (786-0 renal) | TGI (K-562 leukemia) | TGI (HCT-15 colon) | TGI (SF-268 CNS) | TGI (MCF7 breast) | TGI (T-47D breast) | TGI (HL-60(TB) leukemia) | TGI (HOP-62 NSCLC) | TGI (LOX IMVI melanoma) | TGI (SN12C renal) | TGI (OVCAR-8 ovarian) | TGI (HCC-2998 colon) | TGI (OVCAR-4 ovarian) | TGI (SK-MEL-28 melanoma) | TGI (PC-3 prostate) | TGI (SF-295 CNS) | TGI (NCI-H23 lung)
24900 nM: TGI (A498 renal)
active: GI50 (DU-145 prostate) 248 nM | GI50 (U251 CNS) 358 nM | GI50 (SK-OV-3 ovarian) 318 nM | GI50 (BT-549 breast) 275 nM | GI50 (UACC-62 melanoma) 350 nM | GI50 (NCI/ADR-RES ovarian) 262 nM | GI50 (SR leukemia) 70.8 nM | GI50 (HCT-116 colon) 249 nM | GI50 (SNB-75 CNS) 167 nM | GI50 (SW-620 colon) 150 nM | GI50 (CCRF-CEM leukemia) 331 nM | GI50 (K-562 leukemia) 129 nM | GI50 (HCT-15 colon) 324 nM | GI50 (RPMI-8226 leukemia) 230 nM | GI50 (RXF 393 renal) 81.3 nM | GI50 (MCF7 breast) 120 nM | GI50 (HL-60(TB) leukemia) 316 nM | GI50 (SF-539 CNS) 254 nM | GI50 (LOX IMVI melanoma) 399 nM | GI50 (SK-MEL-5 melanoma) 183 nM | GI50 (NCI-H522 lung) 172 nM | GI50 (HCC-2998 colon) 265 nM | GI50 (NCI-H460 lung) 287 nM | GI50 (OVCAR-3 ovarian) 113 nM
> 62100 nM: TGI (ACHN renal)
> 91900 nM: TGI (HCT-116 colon)
852 nM: TGI (NCI-H522 lung)
> 37300 nM: TGI (UACC-257 melanoma)
612 nM: TGI (OVCAR-3 ovarian)
10100 nM: TGI (MDA-MB-231 breast)
2920 nM: TGI (SNB-75 CNS)
1160 nM: TGI (SF-539 CNS) | TGI (SK-MEL-5 melanoma)
inactive: GI50 (MALME-3M melanoma) 2660 nM | GI50 (A498 renal) 2360 nM | GI50 (HS 578T breast) 696 nM | GI50 (EKVX NSCLC) 1380 nM | GI50 (SNB-19 CNS) 612 nM | GI50 (NCI-H226 lung) 1420 nM | GI50 (CAKI-1 renal) 621 nM | GI50 (A549 NSCLC) 563 nM | GI50 (UO-31 renal) 585 nM | GI50 (HOP-92 NSCLC) 999 nM | GI50 (COLO 205 colon) 4050 nM | GI50 (KM12 colon) 759 nM | GI50 (MOLT-4 leukemia) 952 nM | GI50 (M14 melanoma) 521 nM | GI50 (TK-10 renal) 6880 nM | GI50 (SK-MEL-2 melanoma) 1310 nM | GI50 (MDA-MB-231 breast) 905 nM | GI50 (786-0 renal) 1180 nM | GI50 (SF-268 CNS) 558 nM | GI50 (T-47D breast) 6400 nM | GI50 (HOP-62 NSCLC) 1650 nM | GI50 (SN12C renal) 665 nM | GI50 (OVCAR-8 ovarian) 775 nM | GI50 (OVCAR-5 ovarian) 2490 nM | GI50 (OVCAR-4 ovarian) 1300 nM | GI50 (SK-MEL-28 melanoma) 3250 nM | GI50 (PC-3 prostate) 621 nM | GI50 (ACHN renal) 628 nM | GI50 (HT29 colon) 1250 nM | GI50 (UACC-257 melanoma) 857 nM | GI50 (SF-295 CNS) 495 nM | GI50 (NCI-H23 lung) 1170 nM
> 22100 nM: TGI (SK-MEL-2 melanoma)
12300 nM: TGI (HT29 colon)
4580 nM: TGI (U251 CNS)
> 92600 nM: TGI (MALME-3M melanoma)
9870 nM: TGI (HOP-92 NSCLC)
99200 nM: TGI (BT-549 breast)
> 43800 nM: TGI (NCI/ADR-RES ovarian)
